Source: patent US20230348401A1, “Inhibitors of Glucose-6-phosphate Dehydrogenase and Uses Thereof” (The Trustees of Princeton University, priority 2020, published 2023)
Like-named read-outs stand apart in the source and are kept apart here.

Target: G6PD (Homo sapiens, UniProt P11413)
Test: G6PD enzymatic activity by diaphorase-coupled assay
[1] = Normalized in vitro IC50, Table 1A, diaphorase-coupled biochemical assay, normalization to an intraplate control

Chain of G6PD (P11413 28-515): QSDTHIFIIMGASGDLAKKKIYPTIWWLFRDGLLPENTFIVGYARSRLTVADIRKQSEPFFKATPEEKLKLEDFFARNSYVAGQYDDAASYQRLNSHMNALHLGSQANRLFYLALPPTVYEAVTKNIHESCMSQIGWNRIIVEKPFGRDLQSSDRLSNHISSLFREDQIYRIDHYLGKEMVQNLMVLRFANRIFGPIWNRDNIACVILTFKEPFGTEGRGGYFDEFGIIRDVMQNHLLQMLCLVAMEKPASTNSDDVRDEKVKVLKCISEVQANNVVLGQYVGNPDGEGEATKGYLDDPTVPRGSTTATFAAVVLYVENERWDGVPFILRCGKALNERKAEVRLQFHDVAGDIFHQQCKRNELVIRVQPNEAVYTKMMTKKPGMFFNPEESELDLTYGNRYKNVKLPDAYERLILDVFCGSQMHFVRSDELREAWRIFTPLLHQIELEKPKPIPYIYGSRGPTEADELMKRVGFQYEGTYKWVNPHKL

## O=C1CCCCc2nc(Nc3ccc(F)cc3)ncc21 [Compound 0001]
[1]
  IC50: 1 to 1000 µM

## O=C1CCCCc2nc(Nc3ccc(Cl)cc3)ncc21 [Compound 0002]
[1]
  IC50: 1 to 1000 µM

## O=C1CCCCc2nc(Nc3ccc(Br)cc3)ncc21 [Compound 0003]
[1]
  IC50: 1 to 1000 µM

## O=C1CCCCc2nc(Nc3ccc(I)cc3)ncc21 [Compound 0004]
[1]
  IC50: 1 to 1000 µM

## Cc1ccc(Nc2ncc3c(n2)CCCCC3=O)cc1 [Compound 0005]
[1]
  IC50: 1 to 1000 µM

## CCc1ccc(Nc2ncc3c(n2)CCCCC3=O)cc1 [Compound 0006]
[1]
  IC50: 1 to 1000 µM

## CC(C)c1ccc(Nc2ncc3c(n2)CCCCC3=O)cc1 [Compound 0007]
[1]
  IC50: 1 to 1000 µM

## COc1ccc(Nc2ncc3c(n2)CCCCC3=O)cc1 [Compound 0008]
[1]
  IC50: 1 to 1000 µM

## O=C1CCCCc2nc(Nc3ccc(SC(F)(F)F)cc3)ncc21 [Compound 0009]
[1]
  IC50: 1 to 1000 µM

## O=C1CCCCc2nc(Nc3ccc(C(F)(F)F)cc3)ncc21 [Compound 0010]
[1]
  IC50: 1 to 1000 µM

## O=C1CCCCc2nc(Nc3ccc([N+](=O)[O-])cc3)ncc21 [Compound 0011]
[1]
  IC50: 1 to 1000 µM

## N#Cc1ccc(Nc2ncc3c(n2)CCCCC3=O)cc1 [Compound 0012]
[1]
  IC50: 1 to 1000 µM

## CC(=O)Nc1ccc(Nc2ncc3c(n2)CCCCC3=O)cc1 [Compound 0013]
[1]
  IC50: > 1000 µM

## O=C1CCCCc2nc(Nc3cc(C(F)(F)F)cc(C(F)(F)F)c3)ncc21 [Compound 0014]
  IC50: 1 to 1000 µM

## O=C1CCCCc2nc(Nc3ccccc3F)ncc21 [Compound 0015]
[1]
  IC50: 1 to 1000 µM

## O=C1CCCCc2nc(Nc3ccccc3Cl)ncc21 [Compound 0016]
[1]
  IC50: 1 to 1000 µM

## O=C1CCCCc2nc(Nc3ccc(F)c(Cl)c3)ncc21 [Compound 0017]
  IC50: < 1 µM

## N#Cc1cc(Nc2ncc3c(n2)CCCCC3=O)ccc1Cl [Compound 0018]
  IC50: 1 to 1000 µM

## Cc1ccc(Nc2ncc3c(n2)CCCCC3=O)cc1C#N [Compound 0019]
  IC50: < 1 µM

## COc1ccc(Nc2ncc3c(n2)CCCCC3=O)cc1C#N [Compound 0020]
[1]
  IC50: < 1 µM

## O=C1CCCCc2nc(Nc3ccccc3)ncc21 [Compound 0021]
[1]
  IC50: 1 to 1000 µM

## COC(=O)c1ccc(Nc2ncc3c(n2)CCCCC3=O)cc1 [Compound 0022]
[1]
  IC50: 1 to 1000 µM

## CC1(C)OB(c2cccc(Nc3ncc4c(n3)CCCCC4=O)c2)OC1(C)C [Compound 0023]
  IC50: 1 to 1000 µM

## N#CCc1cccc(Nc2ncc3c(n2)CCCCC3=O)c1 [Compound 0024]
[1]
  IC50: 1 to 1000 µM

## O=C1CCCCc2nc(Nc3ccc([N+](=O)[O-])c(Cl)c3)ncc21 [Compound 0025]
  IC50: 1 to 1000 µM

## N#CCc1ccc(Nc2ncc3c(n2)CCCCC3=O)cc1 [Compound 0026]
[1]
  IC50: 1 to 1000 µM

## O=C1CCCCc2nc(Nc3cc(Cl)cc(C(F)(F)F)c3)ncc21 [Compound 0027]
  IC50: 1 to 1000 µM

## O=C1CCCCc2nc(Nc3cccc(Cl)c3)ncc21 [Compound 0028]
[1]
  IC50: < 1 µM

## N#Cc1cc(Nc2ncc3c(n2)CCCCC3(F)F)cs1 [Compound 0031]
  IC50: 1 to 1000 µM

## O=C1CCCCc2nc(Nc3ccc(B(O)O)cc3)ncc21 [Compound 0032]
[1]
  IC50: 1 to 1000 µM

## O=C1CCCCc2nc(Nc3csc(-c4nnn[nH]4)c3)ncc21 [Compound 0033]
  IC50: 1 to 1000 µM

## N#CC(C#N)=C1CCCCc2nc(Nc3csc(C#N)c3)ncc21 [Compound 0034]
  IC50: < 1 µM

## N#Cc1cc(Nc2ncc3c(n2)CCCCC3=O)cc(OCc2ccccc2)c1 [Compound 0035]
  IC50: < 1 µM

## O=C1CCCCc2nc(Nc3ccc(-c4nnn[nH]4)cc3)ncc21 [Compound 0036]
  IC50: < 1 µM

## N#Cc1cc(Nc2ncc3c(n2)C2CCC(C2)C3=O)cs1 (stereo not shown) [Compound 0040]
  IC50: 1 to 1000 µM

## O=C(c1ccccc1)c1cc(Cl)cc(Nc2ncc3c(n2)CCCCC3=O)c1 [Compound 0042]
[1]
  IC50: 1 to 1000 µM

## Cc1ccc(C(=O)c2cc(Cl)cc(Nc3ncc4c(n3)CCCCC4=O)c2)cc1 [Compound 0043]
  IC50: > 1000 µM

## NS(=O)(=O)c1ccc(Nc2ncc3c(n2)CCCCC3=O)cc1 [Compound 0044]
[1]
  IC50: 1 to 1000 µM

## N#Cc1cc(Nc2ncc3c(n2)CCCCC3=O)cc(OCc2ccc(Cl)cc2)c1 [Compound 0045]
  IC50: 1 to 1000 µM

## N#Cc1cc(Nc2ncc3c(n2)CCCCC3=O)cc(OCc2cccc(Cl)c2)c1 [Compound 0046]
  IC50: < 1 µM

## N#Cc1cc(Nc2ncc3c(n2)CCCCC3=O)cc(OCc2ccccc2Cl)c1 [Compound 0047]
  IC50: < 1 µM

## COc1ccc(COc2cc(C#N)cc(Nc3ncc4c(n3)CCCCC4=O)c2)cc1 [Compound 0048]
  IC50: < 1 µM

## N#Cc1cc(Nc2ncc3c(n2)CCCCC3=O)cc(OCc2ccsc2)c1 [Compound 0049]
  IC50: < 1 µM

## N#Cc1cc(Nc2ncc3c(n2)CCCCC3=O)cc(OCc2c(F)c(F)c(F)c(F)c2F)c1 [Compound 0050]
  IC50: < 1 µM

## N#Cc1cc(Nc2ncc3c(n2)CCCCC3=O)c[nH]1 [Compound 0051]
  IC50: < 1 µM

## N#Cc1cc(Nc2ncc3c(n2)CCCc2cnoc2-3)cs1 [Compound 0052]
  IC50: 1 to 1000 µM

## N#Cc1cc(Nc2ncc3c(n2)CCCC/C3=N\O)cs1 [Compound 0053]
  IC50: > 1000 µM

## N#Cc1cc(Nc2ncc3c(n2)CCCC/C3=N/O)cs1 [Compound 0054]
  IC50: > 1000 µM

## N#C/C=C1\CCCCc2nc(Nc3csc(C#N)c3)ncc21 [Compound 0055]
  IC50: 1 to 1000 µM

## N#C/C=C1/CCCCc2nc(Nc3csc(C#N)c3)ncc21 [Compound 0056]
  IC50: 1 to 1000 µM

## Cn1cc(Nc2ncc3c(n2)CCCCC3=O)cc1C#N [Compound 0057]
  IC50: 1 to 1000 µM

## N#Cc1cc(Nc2ncc3c(n2)CCCCC3=O)cn1Cc1ccccc1 [Compound 0058]
  IC50: 1 to 1000 µM

## CCOc1cc(C#N)cc(Nc2ncc3c(n2)CCCCC3=O)c1 [Compound 0059]
  IC50: < 1 µM

## CCCOc1cc(C#N)cc(Nc2ncc3c(n2)CCCCC3=O)c1 [Compound 0060]
  IC50: < 1 µM

## CC(C)Oc1cc(C#N)cc(Nc2ncc3c(n2)CCCCC3=O)c1 [Compound 0061]
  IC50: < 1 µM

## C#CCOc1cc(C#N)cc(Nc2ncc3c(n2)CCCCC3=O)c1 [Compound 0062]
  IC50: < 1 µM

## N#Cc1cc(Nc2ncc3c(n2)CCCCC3=O)cc(OC2CCCCC2)c1 [Compound 0063]
  IC50: < 1 µM

## N#Cc1cc(Nc2ncc3c(n2)CCCCC3=O)cs1 [Compound 0065]
[1]
  IC50: < 1 µM

## N#Cc1cc(Nc2cc3c(cn2)C(=O)CCCC3)cs1 [Compound 0066]
  IC50: 1 to 1000 µM

## N#Cc1cc(Nc2ncc3c(n2)CCCc2cn[nH]c2-3)cs1 [Compound 0067]
  IC50: 1 to 1000 µM

## N#Cc1scc(Nc2ncc3c(n2)CCCCC3=O)c1-n1cccc1 [Compound 0071]
  IC50: < 1 µM

## N#Cc1cc(Nc2ncc3c(n2)CCCCC3=O)cc(OCC2CCCCC2)c1 [Compound 0072]
  IC50: 1 to 1000 µM

## N#Cc1cc(Nc2ncc3c(n2)CCCCC3=O)cc(OCc2ccc(Br)cc2)c1 [Compound 0073]
  IC50: 1 to 1000 µM

## Cc1ccc(COc2cc(C#N)cc(Nc3ncc4c(n3)CCCCC4=O)c2)cc1 [Compound 0074]
  IC50: < 1 µM

## N#Cc1cc(Nc2ncc3c(n2)CCCCC3=O)cc(OCc2ccc3c(c2)OCO3)c1 [Compound 0075]
  IC50: < 1 µM

## N#Cc1cc(Nc2ncc3c(n2)CCCCC3=O)cc(OCc2ccc(F)cc2)c1 [Compound 0076]
  IC50: < 1 µM

## N#Cc1cc(Nc2ncc3c(n2)CCCCC3=O)cc(OCc2ccc(OC(F)(F)F)cc2)c1 [Compound 0077]
  IC50: 1 to 1000 µM

## N#Cc1cc(Nc2ncc3c(n2)CCCCC3=O)cc(OCc2ccncc2)c1 [Compound 0078]
  IC50: < 1 µM

## N#Cc1cc(Nc2ncc3c(n2)CCCCC3=O)cc(OCc2cccc3ccccc23)c1 [Compound 0079]
  IC50: < 1 µM

## N#Cc1cc(Nc2ncc3c(n2)CCCCC3=O)cc(OCc2ccc3ccccc3c2)c1 [Compound 0080]
  IC50: 1 to 1000 µM

## N#Cc1cc(Nc2ncc3c(n2)CCCCC3=O)cc(OCc2c[nH]c3ccccc23)c1 [Compound 0081]
  IC50: > 1000 µM

## N#Cc1cc(Nc2ncc3c(n2)CCCCC3=O)cc(OCc2ccc(CO)cc2)c1 [Compound 0082]
  IC50: < 1 µM

## N#Cc1cc(Nc2ncc3c(n2)CCCCC3=O)cc(OCc2cccc(CO)c2)c1 [Compound 0083]
  IC50: < 1 µM

## N#Cc1cc(Nc2ncc3c(n2)CCCCC3=O)cc(Oc2ccccc2)c1 [Compound 0084]
  IC50: 1 to 1000 µM

## N#Cc1cc(Nc2ncc3c(n2)CCCCC3=O)cc(OC(=O)c2ccccc2)c1 [Compound 0085]
  IC50: 1 to 1000 µM

## COc1ccc(Oc2cc(C#N)cc(Nc3ncc4c(n3)CCCCC4=O)c2)cc1 [Compound 0086]
[1]
  IC50: 1 to 1000 µM

## N#Cc1cccc(Nc2ncc3c(n2)CCCCC3=O)c1F [Compound 0087]
  IC50: < 1 µM

## N#Cc1ccc(F)c(Nc2ncc3c(n2)CCCCC3=O)c1 [Compound 0088]
  IC50: 1 to 1000 µM

## CCCCOc1cc(C#N)cc(Nc2ncc3c(n2)CCCCC3=O)c1 [Compound 0089]
  IC50: 1 to 1000 µM

## CCOCCOc1cc(C#N)cc(Nc2ncc3c(n2)CCCCC3=O)c1 [Compound 0090]
  IC50: 1 to 1000 µM

## CCCCCCCCCCCCCCOc1cc(C#N)cc(Nc2ncc3c(n2)CCCCC3=O)c1 [Compound 0092]
  IC50: > 1000 µM

## CC1(C)[C@H]2CCC1(C)[C@@H](Oc1cc(C#N)cc(Nc3ncc4c(n3)CCCCC4=O)c1)C2 [Compound 0093]
  IC50: > 1000 µM

## C#CCCCOc1cc(C#N)cc(Nc2ncc3c(n2)CCCCC3=O)c1 [Compound 0094]
  IC50: < 1 µM

## C#CCC1(COc2cc(C#N)cc(Nc3ncc4c(n3)CCCCC4=O)c2)N=N1 [Compound 0095]
  IC50: > 1000 µM

## COC(=O)c1ccc(COc2cc(C#N)cc(Nc3ncc4c(n3)CCCCC4=O)c2)cc1 [Compound 0096]
  IC50: > 1000 µM

## N#Cc1cc(Nc2ncc3c(n2)CCCCC3=O)cc(OCC2CC2)c1 [Compound 0097]
  IC50: < 1 µM

## N#Cc1cc(Nc2ncc3c(n2)CCCCC3=O)cc(OCC2CCC2)c1 [Compound 0098]
  IC50: 1 to 1000 µM

## N#Cc1cc(Nc2ncc3c(n2)CCCCC3=O)cc(OCC2CCCC2)c1 [Compound 0099]
  IC50: 1 to 1000 µM

## N#Cc1cc(Nc2ncc3c(n2)CCCCC3=O)cc(OC(c2ccccc2)c2ccccc2)c1 [Compound 0100]
  IC50: 1 to 1000 µM

## CCC(CC)Oc1cc(C#N)cc(Nc2ncc3c(n2)CCCCC3=O)c1 [Compound 0101]
  IC50: 1 to 1000 µM

## N#Cc1cc(Nc2ncc3c(n2)CCCCC3=O)cc(OCCc2ccccc2)c1 [Compound 0103]
  IC50: < 1 µM
